Experimental data from EP0527889B1, “QUINOLIZINONE TYPE COMPOUNDS” (priority 1990, dated 1991).
≈ marks a conversion by molar mass, not a printed value. Counter-ions that a name gives are not always drawn.

Columns and labels:
[1] = system: Escherichia coli JUHL; experiment: In vivo antibacterial activity in mice (protection from lethal intraperitoneal infection); conditions: 144 h, E. coli JUHL, mice infected intraperitoneally, treated at 1 and 5 hr after infection, cumulative mortalities on the sixth day
Procedure: (§1) The in vivo antibacterial activity of the compounds of the present invention was determined as follows: Aqueous solutions of the test compounds were prepared by dissolving the compound in distilled water, except for the compounds of examples 169 and 170 which were dissolved in a solution of 2% DMSO in distilled water.
(§2) After 18 hr incubation, a culture of Staphylococcus aureus NCTC 10649 was serially diluted by using 10-fold dilutions in 5% (w/v) hog gastric mucin. Cultures (0.5 mL) in a dilution from 10^-1 to 10^-8 were injected intraperitoneally into CF-1 female mice weighing approximately 20g. The LD50 (median lethal dose) for the test organism was calculated from the cumulative mortalities on the sixth day by the using the Reed and Muench procedure (Reed, L.J., and H. Muench, Amer. J. Hygiene, 27, 493 (1938)).
(§3) The above 18 hr culture was diluted in 5% (w/v) hog gastric mucin to obtain 100 times the LD50, and 0.5 mL was injected intraperitoneally into mice. The mice were treated subcutaneously (sc) or orally (po) with a specific amount of the test compound divided equally to be administered at 1 and 5 hr after infection. A group of 10 animals each for at least three dose levels was thus treated, and the deaths were recorded daily for 6 days. Ten mice were left untreated as infection control. ED50 values were calculated from the cumulative mortalities on the sixth day after infection by using the trimmed version of the Logit method ( Hamilton, M.A., R.C. Russo, and R.V. Thurston, Environ. Sci. Technol. 11, 714 (1977)).
The LD50 for Escherichia coli JUHL was determined in a manner similar to that above for S. aureus. The 18 hr cultures of this organism were also prepared for po and sc testing in mice, from which ED50 values were calculated. Positive controls were run with temafloxacin as the test compound, for which ED50 values were also calculated.

[2] = system: Staphylococcus aureus NCTC 10649; experiment: as above; conditions: NCTC10649, 144 h, S. aureus, CF-1 female mice infected intraperitoneally with 100 times the LD50, treated at 1 and 5 hr after infection, cumulative mortalities on the sixth day
Procedure: as §1, §2, §3

[3] = system: Pseudomonas aeruginosa BMH10; experiment: In vitro antibacterial activity, MIC by agar dilution; format: cell-based; conditions: BHI agar, 35-37°C, 20-24 hours, unit assumed
Procedure, shortened: (§4)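 Compound-containing agar plates received approximately 10^4 CFU per spot and were held at 35–37°C for about 20–24 hours; the endpoint was the lowest concentration yielding no growth against a compound-free control.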

[4] = system: Pseudomonas aeruginosa 2862; experiment: as above; format: cell-based; conditions: BHI agar, 35-37°C, 20-24 hours, unit assumed
Procedure, shortened: as §4

[5] = system: Streptococcus pyrogenes CONST; experiment: as above; format: cell-based; conditions: BHI agar, 35-37°C, 20-24 hours, unit assumed
Procedure, shortened: as §4

[6] = system: Enterobacter aerogenes ATCC 13048; experiment: as above; format: cell-based; conditions: BHI agar, 35-37°C, 20-24 hours, unit assumed
Procedure, shortened: as §4

[7] = system: Escherichia coli JUHL; experiment: as above; format: cell-based; conditions: BHI agar, 35-37°C, 20-24 hours, unit assumed
Procedure, shortened: as §4

[8] = system: Staphylococcus aureus NCTC 10649; experiment: as above; format: cell-based; conditions: BHI agar, 35-37°C, 20-24 hours, unit assumed
Procedure, shortened: as §4

[9] = system: Staphylococcus aureus A5177; experiment: as above; format: cell-based; conditions: BHI agar, 35-37°C, 20-24 hours, unit assumed
Procedure, shortened: as §4

[10] = system: Staphylococcus aureus 1775; experiment: as above; format: cell-based; conditions: BHI agar, 35-37°C, 20-24 hours, unit assumed
Procedure, shortened: as §4

[11] = system: Enterococcus faecium ATCC 8043; experiment: as above; format: cell-based; conditions: BHI agar, 35-37°C, 20-24 hours, unit assumed
Procedure, shortened: as §4

[12] = system: Escherichia coli DC-2; experiment: as above; format: cell-based; conditions: BHI agar, 35-37°C, 20-24 hours, unit assumed
Procedure, shortened: as §4

[13] = system: Escherichia coli H560; experiment: as above; format: cell-based; conditions: BHI agar, 35-37°C, 20-24 hours, unit assumed
Procedure, shortened: as §4

[14] = system: Pseudomonas aeruginosa K799/WT; experiment: as above; format: cell-based; conditions: BHI agar, 35-37°C, 20-24 hours, unit assumed
Procedure, shortened: as §4

[15] = system: Micrococcus luteus ATCC 4698; experiment: as above; format: cell-based; conditions: BHI agar, 35-37°C, 20-24 hours, unit assumed
Procedure, shortened: as §4

[16] = system: Acinetobacter calcoaceticus CMX 669; experiment: as above; format: cell-based; conditions: BHI agar, 35-37°C, 20-24 hours, unit assumed
Procedure, shortened: as §4

[17] = system: Pseudomonas aeruginosa 5263; experiment: as above; format: cell-based; conditions: BHI agar, 35-37°C, 20-24 hours, unit assumed
Procedure, shortened: as §4

[18] = system: Klebsiella pneumoniae ATCC 8045; experiment: as above; format: cell-based; conditions: BHI agar, 35-37°C, 20-24 hours, unit assumed
Procedure, shortened: as §4

[19] = system: Escherichia coli SS; experiment: as above; format: cell-based; conditions: BHI agar, 35-37°C, 20-24 hours, unit assumed
Procedure, shortened: as §4

[20] = system: Pseudomonas cepacia 296I; experiment: as above; format: cell-based; conditions: BHI agar, 35-37°C, 20-24 hours, unit assumed
Procedure, shortened: as §4

[21] = system: Escherichia coli KNK 437; experiment: as above; format: cell-based; conditions: BHI agar, 35-37°C, 20-24 hours, unit assumed
Procedure, shortened: as §4

[22] = system: Providencia stuartii CMX 640; experiment: as above; format: cell-based; conditions: BHI agar, 35-37°C, 20-24 hours, unit assumed
Procedure, shortened: as §4

[23] = system: Pseudomonas aeruginosa A5007; experiment: as above; format: cell-based; conditions: BHI agar, 35-37°C, 20-24 hours, unit assumed
Procedure, shortened: as §4

[24] = system: Streptococcus pyrogenes 2548 INDUC; experiment: as above; format: cell-based; conditions: BHI agar, 35-37°C, 20-24 hours, unit assumed
Procedure, shortened: as §4

[25] = system: Streptococcus agalactaciae CMX 508; experiment: as above; format: cell-based; conditions: BHI agar, 35-37°C, 20-24 hours, unit assumed
Procedure, shortened: as §4

[26] = system: Micrococcus luteus ATCC 9341; experiment: as above; format: cell-based; conditions: BHI agar, 35-37°C, 20-24 hours, unit assumed
Procedure, shortened: as §4

[27] = system: Streptococcus bovis A5169; experiment: as above; format: cell-based; conditions: BHI agar, 35-37°C, 20-24 hours, unit assumed
Procedure, shortened: as §4

[28] = system: Streptococcus pyrogenes EES61; experiment: as above; format: cell-based; conditions: BHI agar, 35-37°C, 20-24 hours, unit assumed
Procedure, shortened: as §4

[29] = system: Staphylococcus aureus 642A; experiment: as above; format: cell-based; conditions: BHI agar, 35-37°C, 20-24 hours, unit assumed
Procedure, shortened: as §4

[30] = system: Staphylococcus aureus A-5278; experiment: as above; format: cell-based; conditions: BHI agar, 35-37°C, 20-24 hours, unit assumed
Procedure, shortened: as §4

[31] = system: Staphylococcus aureus CMX 553; experiment: as above; format: cell-based; conditions: BHI agar, 35-37°C, 20-24 hours, unit assumed
Procedure, shortened: as §4

[32] = system: Pseudomonas aeruginosa K799/61; experiment: as above; format: cell-based; conditions: BHI agar, 35-37°C, 20-24 hours, unit assumed
Procedure, shortened: as §4

[33] = system: Staphylococcus epidermidis 3519; experiment: as above; format: cell-based; conditions: BHI agar, 35-37°C, 20-24 hours, unit assumed
Procedure, shortened: as §4

[34] = system: Staphylococcus aureus ATCC 6538P; experiment: as above; format: cell-based; conditions: BHI agar, 35-37°C, 20-24 hours, unit assumed
Procedure, shortened: as §4

Row | SMILES | ED50 ([1]; po) [mg/kg] | ED50 ([1]; sc) [mg/kg] | ED50 ([2]; po) [mg/kg] | ED50 ([2]; sc) [mg/kg] | MIC values [3] [µg/mL] | MIC values [4] [µg/mL] | MIC values [5] [µg/mL] | MIC values [6] [µg/mL] | MIC values [7] [µg/mL] | MIC values [8] [µg/mL] | MIC values [9] [µg/mL] | MIC values [10] [µg/mL] | MIC values [11] [µg/mL] | MIC values [12] [µg/mL] | MIC values [13] [µg/mL] | MIC values [14] [µg/mL] | MIC values [15] [µg/mL] | MIC values [16] [µg/mL] | MIC values [17] [µg/mL] | MIC values [18] [µg/mL] | other results
1 | CCC[C@H](N)C(=O)NC1CCN(c2nc3c(-c4ccc(F)cc4F)cc(C(=O)O)c(=O)n3cc2F)C1 (stereo partly drawn) [Example 166, 9-(2,4-Difluorophenyl)-3-fluoro-2-(3-(N-(S)-norvalyl)aminopyrrolidin-1-yl)-6H-6-oxopyrido[1,2-a]pyrimidine-7-carboxylic acid hydrochloride salt] | 25 | < 2.5 | > 24 | 8 | 3.1 | > 100 | 1.56 | 3.1 | 0.78 | 0.39 | 1.56 | > 100 | 12.5 | 12.5 | 0.78 | 6.2 | 25 | 3.1 | > 100 | 1.56 | MIC values [19]: 0.05 µg/mL; MIC values [20]: > 100 µg/mL; MIC values [21]: 6.2 µg/mL; MIC values [22]: > 100 µg/mL; MIC values [23]: 6.2 µg/mL; MIC values [24]: 1.56 µg/mL; MIC values [25]: 3.1 µg/mL; MIC values [26]: 50 µg/mL; MIC values [27]: 25 µg/mL; MIC values [28]: 1.56 µg/mL; MIC values [29]: 1.56 µg/mL; MIC values [30]: 1.56 µg/mL; MIC values [31]: 3.1 µg/mL; MIC values [32]: 0.39 µg/mL; MIC values [33]: 0.78 µg/mL; MIC values [34]: 0.39 µg/mL
2 | C[C@H](N)C(=O)NC1CCN(c2nc3c(-c4ccc(F)cc4F)cc(C(=O)O)c(=O)n3cc2F)C1 (stereo partly drawn) [Example 167, 2-(3-(N-(S)-Alanyl)aminopyrrolidin-1-yl)-9-(2,4-difluorophenyl)-3-fluoro-6H-6-oxopyrido[1,2-a]pyrimidine-7-carboxylic acid hydrochloride] | 16.6 | < 2.5 | 14.4 | 2.7 | 12.5 | > 100 | 3.1 | 3.1 | 1.56 | 0.78 | 3.1 | > 100 | 12.5 | 25 | 1.56 | 6.2 | 50 | 12.5 | > 100 | 3.1 | MIC values [19]: 0.05 µg/mL; MIC values [20]: 100 µg/mL; MIC values [21]: 25 µg/mL; MIC values [22]: 100 µg/mL; MIC values [23]: 6.2 µg/mL; MIC values [24]: 1.56 µg/mL; MIC values [25]: 6.2 µg/mL; MIC values [26]: 50 µg/mL; MIC values [27]: 12.5 µg/mL; MIC values [28]: 6.2 µg/mL; MIC values [29]: 3.1 µg/mL; MIC values [30]: 1.56 µg/mL; MIC values [31]: 6.2 µg/mL; MIC values [32]: 1.56 µg/mL; MIC values [33]: 3.1 µg/mL; MIC values [34]: 0.78 µg/mL
3 | CC(=O)N[C@H]1C[C@H](C)N(c2nc3c(-c4ccc(F)cc4F)cc(C(=O)O)c(=O)n3cc2F)C1 [Example 169, 2-((2S,4S)-4-Acetamido-2-methylpyrrolidin-1-yl)-9-(2,4-difluorophenyl)-3-fluoro-6H-6-oxopyrido[1,2-a]pyrimidine-7-carboxylic acid] |  |  | > 48 | 7.5 | 3.1 (≈ 6.73 µM) | > 100 | 0.39 (≈ 0.847 µM) | 3.1 (≈ 6.73 µM) | 0.78 (≈ 1.69 µM) | 0.2 (≈ 0.434 µM) | 0.2 (≈ 0.434 µM) | 25 (≈ 54.3 µM) | 1.56 (≈ 3.39 µM) | 12.5 (≈ 27.1 µM) | 0.78 (≈ 1.69 µM) | 3.1 (≈ 6.73 µM) | 0.39 (≈ 0.847 µM) | 3.1 (≈ 6.73 µM) | > 100 | 0.39 (≈ 0.847 µM) | MIC values [19]: 0.005 µg/mL (≈ 0.0109 µM); MIC values [20]: 25 µg/mL (≈ 54.3 µM); MIC values [21]: 6.2 µg/mL (≈ 13.5 µM); MIC values [22]: 25 µg/mL (≈ 54.3 µM); MIC values [23]: 3.1 µg/mL (≈ 6.73 µM); MIC values [24]: 0.39 µg/mL (≈ 0.847 µM); MIC values [25]: 0.78 µg/mL (≈ 1.69 µM); MIC values [26]: 3.1 µg/mL (≈ 6.73 µM); MIC values [27]: 3.1 µg/mL (≈ 6.73 µM); MIC values [28]: 0.78 µg/mL (≈ 1.69 µM); MIC values [29]: 0.39 µg/mL (≈ 0.847 µM); MIC values [30]: 0.2 µg/mL (≈ 0.434 µM); MIC values [31]: 0.39 µg/mL (≈ 0.847 µM); MIC values [32]: 0.39 µg/mL (≈ 0.847 µM); MIC values [33]: 0.39 µg/mL (≈ 0.847 µM); MIC values [34]: 0.1 µg/mL (≈ 0.217 µM)
4 | CC1CN(c2cc3c(cc2F)c(=O)c(C(=O)O)cn3-c2ccc(F)cc2F)CCN1 (centres unmarked) [temafloxacin, reference compound] | 1.5 | 0.5 | 1.5 | 1.3 |  |  |  |  |  |  |  |  |  |  |  |  |  |  |  |  | 
